Results on 19 compounds are retold here after patent US20160296499A1, “Spiroindoline Antiparasitic Derivatives” (ZOETIS SERVICES LLC, priority 2013, published 2016).

Usually Ki stands for the equilibrium dissociation constant of an inhibitor or competing ligand from its target.

In experiment [1] the test system is Dirofilaria immitis microfilariae. The experiment in a line: Dirofilaria immitis, Microfilariae (DiMF) In Vitro Assay.
For another experiment, the system named is Haemonchus contortus L3. As to the kind of experiment: Haemonchus contortus, Larvae Stage 3 (HcL3) In Vitro Assay.
Experiment [2] has as its target T1, bovine vesicular acetylcholine transporter (VAChT) (Bos taurus, UniProt E1BK36).
T1 sequence (E1BK36 1-524): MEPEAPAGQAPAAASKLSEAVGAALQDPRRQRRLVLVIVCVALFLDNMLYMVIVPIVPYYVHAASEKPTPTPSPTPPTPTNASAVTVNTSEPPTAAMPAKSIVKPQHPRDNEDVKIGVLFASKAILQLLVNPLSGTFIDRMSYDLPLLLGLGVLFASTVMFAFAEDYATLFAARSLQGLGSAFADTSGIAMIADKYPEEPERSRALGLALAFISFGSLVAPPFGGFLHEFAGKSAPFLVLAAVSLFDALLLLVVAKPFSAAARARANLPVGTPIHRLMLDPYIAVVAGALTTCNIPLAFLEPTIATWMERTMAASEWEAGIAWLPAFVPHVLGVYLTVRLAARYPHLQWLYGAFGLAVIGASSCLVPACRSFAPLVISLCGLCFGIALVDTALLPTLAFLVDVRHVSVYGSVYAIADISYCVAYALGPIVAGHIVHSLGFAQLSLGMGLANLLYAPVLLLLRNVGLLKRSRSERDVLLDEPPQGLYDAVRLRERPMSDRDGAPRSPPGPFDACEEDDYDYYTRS
As to the kind of experiment: Radioligand Binding Assay. The following applies: Bovine binding Ki, CHO-K1 membranes with recombinant bovine VAChT, [3H]Compound X6 0.3 nM.

[3] abbreviates: Dirofilaria immitis, 72 hours, read-out: Di MF.
The mark [4] stands for this setting: Haemonchus contortus, 96 hours, 37° C., read-out: HcL3 MEC.
[5] abbreviates: Dirofilaria immitis, 72 h, read-out: Di MF, MEC, decrease in microfilariae motility by visual assessment, curve starting at 100 μM.
Setting [6] is: Haemonchus contortus, 96 h, read-out: HcL3 MEC, Minimal Effective Concentration whereby worm motility is inhibited by approximately 70%, 37° C., tested 0.001-100 μM.

Structures are written as SMILES. Read-outs that look alike come from different tables or passages of the source.

In the case of `O=C(NCc1ccnc(Cl)c1)N1CC2(CCN(C/C=C/c3ccc(Cl)cc3)CC2)c2cc(F)c(C(F)(F)F)cc21` [Example 126, (E)-1′-(3-(4-chlorophenyl)allyl)-N-((2-chloropyridin-4-yl)methyl)-5-fluoro-6-(trifluoromethyl)spiro[indoline-3,4′-piperidine]-1-carboxamide], the minimal effective concentration in experiment [1] (setting [3]) came to 10 µM; in the experiment on Haemonchus contortus L3 (setting [4]) it was 1 µM. For the same compound, in experiment [2], the Ki was found to be 33 nM.

Consider `O=C(NCc1cnc(Cl)s1)N1CC2(CCN(C/C=C/c3ccc(Cl)cc3)CC2)c2cc(OC(F)(F)F)ccc21` [Example 189, (E)-1′-(3-(4-chlorophenyl)allyl)-N-((2-chlorothiazol-5-yl)methyl)-5-(trifluoromethoxy)spiro[indoline-3,4′-piperidine]-1-carboxamide], for which the minimal effective concentration in experiment [1] (setting [3]) was 14 µM; in the experiment on Haemonchus contortus L3 (setting [4]) it was 100 µM. The Ki in experiment [2] is 792 nM.

In the case of `O=C(NCC1CCCC1)N1CC2(CCN(C/C=C/c3ccc(Cl)c(Cl)c3)CC2)c2c1ccc1scnc21` [Example 33, (E)-N-(cyclopentylmethyl)-1-(3-(3,4-dichlorophenyl)allyl)spiro[piperidine-4,8′-thiazolo[4,5-e]indole]-6′(7′H)-carboxamide], the minimal effective concentration worked out at 10 µM in experiment [1] (setting [5]) and 100 µM with Haemonchus contortus L3 (setting [6]). In addition, the inhibitory constant (Ki) in experiment [2] was 1640 nM.

Take `N#Cc1c(F)ccc2c1C1(CCN(C/C=C/c3ccc(Cl)cc3)CC1)CN2C(=O)NCc1ccnc(Cl)c1` [Example 166, (E)-1′-(3-(4-chlorophenyl)allyl)-N-((2-chloropyridin-4-yl)methyl)-4-cyano-5-fluorospiro[indoline-3,4′-piperidine]-1-carboxamide]: the values for the minimal effective concentration (in experiment [1] (setting [5]); in the experiment on Haemonchus contortus L3 (setting [6])) were 1.5 µM and 23.5 µM, respectively. Moreover, the Ki in experiment [2] was found to be 43.5 nM.

On to `O=C(NCc1ccnc(Cl)c1)N1CC2(CCN(C/C=C/c3ccc(OC(F)(F)F)cc3)CC2)c2cc(C(F)(F)F)ccc21` [Example 172, (E)-N-((2-chloropyridin-4-yl)methyl)-1′-(3-(4-(trifluoromethoxy)phenyl)allyl)-5-(trifluoromethyl)spiro[indoline-3,4′-piperidine]-1-carboxamide], for which the minimal effective concentration amounted to 5.7 µM in experiment [1] (setting [5]) and 100 µM in the experiment with Haemonchus contortus L3 (setting [6]). In experiment [2], the Ki came to 921 nM.

Regarding `O=C(NCc1ccnc(Cl)c1)N1CC2(CCN(C/C=C/c3ccc(Cl)cc3)CC2)c2c(OC(F)(F)F)ccc(Cl)c21` [Example 121, (E)-7-chloro-1′-(3-(4-chlorophenyl)allyl)-N-((2-chloropyridin-4-yl)methyl)-4-(trifluoromethoxy)spiro[indoline-3,4′-piperidine]-1-carboxamide], the figures for the minimal effective concentration (in experiment [1] (setting [5]); in the experiment with Haemonchus contortus L3 (setting [6])) were 6.9 µM and 100 µM, respectively. Moreover, in experiment [2], the Ki stood at 1260 nM.

Take `O=C(NCc1ccnc(C(F)(F)F)c1)N1CC2(CCN(C/C=C/c3ccc(OC(F)(F)F)cc3)CC2)c2cc(OC(F)(F)F)ccc21` [Example 178, (E)-5-(trifluoromethoxy)-1′-(3-(4-(trifluoromethoxy)phenyl)allyl)-N-((2-(trifluoromethyl)pyridin-4-yl)methyl)spiro[indoline-3,4′-piperidine]-1-carboxamide]: the minimal effective concentration turned out to be 3.3 µM in experiment [1] (setting [5]) and 100 µM in the experiment with Haemonchus contortus L3 (setting [6]). In experiment [2], the inhibitory constant (Ki) was 760 nM.

As for `O=C(NCc1ccnc(F)c1)N1CC2(CCN(C/C=C/c3ccc(Cl)c(Cl)c3)CC2)c2c(Br)cccc21` [Example 103, 4-bromo-1′-[(E)-3-(3,4-dichlorophenyl)allyl]-N-[(2-fluoro-4-pyridyl)methyl]spiro[indoline-3,4′-piperidine]-1-carboxamide], the results for the minimal effective concentration (in experiment [1] (setting [5]); in the experiment on Haemonchus contortus L3 (setting [6])) were 5.7 µM and 3.3 µM, respectively. Besides, in experiment [2], the inhibition constant Ki was 466 nM.

Consider `O=C(NCc1ccnc(F)c1)N1CC2(CCN(C/C=C/c3ccc(Cl)cc3)CC2)c2cc(F)c(Cl)cc21` [Example 69, (E)-6-chloro-1′-(3-(4-chlorophenyl)allyl)-5-fluoro-N-((2-fluoropyridin-4-yl)methyl)spiro[indoline-3,4′-piperidine]-1-carboxamide], for which the minimal effective concentration came out at 6.5 µM in experiment [1] (setting [5]) and 2.5 µM in the experiment with Haemonchus contortus L3 (setting [6]). Moreover, the Ki in experiment [2] amounted to 55.2 nM.

`N#Cc1ccc(/C=C/CN2CCC3(CC2)CN(C(=O)NCc2ccnc(Cl)c2)c2c(F)ccc(C(F)(F)F)c23)cc1` [Example 98, (E)-N-((2-chloropyridin-4-yl)methyl)-1′-(3-(4-cyanophenyl)allyl)-7-fluoro-4-(trifluoromethyl)spiro[indoline-3,4′-piperidine]-1-carboxamide]: the minimal effective concentration in experiment [1] (setting [5]) came out at 10 µM; in the experiment on Haemonchus contortus L3 (setting [6]), 100 µM. In experiment [2], the Ki came to 1570 nM.

Consider `O=C(NCC1CC1)N1CC2(CCN(C/C=C/c3ccc(Cl)c(Cl)c3)CC2)c2c1ccc1scnc21` [Example 32, (E)-N-(cyclopropylmethyl)-1-(3-(3,4-dichlorophenyl)allyl)spiro[piperidine-4,8′-thiazolo[4,5-e]indole]-6′(7′H)-carboxamide], for which the minimal effective concentration in experiment [1] (setting [5]) was found to be 3.3 µM; in the experiment with Haemonchus contortus L3 (setting [6]) it was 100 µM. Moreover, the Ki in experiment [2] turned out to be 136 nM.

Turning to `O=C(NCc1ccnc(Br)c1)N1CC2(CCN(C/C=C/c3ccc(Cl)c(Cl)c3)CC2)c2c1ccc1scnc21` [Example 47, (E)-N-((2-bromopyridin-4-yl)methyl)-1-(3-(3,4-dichlorophenyl)allyl)spiro[piperidine-4,8′-thiazolo[4,5-e]indole]-6′(7′H)-carboxamide], the minimal effective concentration came out at 10 µM in experiment [1] (setting [5]) and 100 µM in the experiment with Haemonchus contortus L3 (setting [6]). The Ki in experiment [2] was 919 nM.

With `O=C(NCc1cnc(Cl)s1)N1CC2(CCN(C/C=C/c3ccc(Cl)cc3)CC2)c2c(OC(F)(F)F)ccc(Cl)c21` [Example 57, (E)-7-chloro-1′-(3-(4-chlorophenyl)allyl)-N-((2-chlorothiazol-5-yl)methyl)-4-(trifluoromethoxy)spiro[indoline-3,4′-piperidine]-1-carboxamide], the values for the minimal effective concentration (in experiment [1] (setting [5]); with Haemonchus contortus L3 (setting [6])) were 4 µM and 70 µM, respectively. Also, the Ki in experiment [2] was 954 nM.

As for `O=C(NCc1ccnc(Cl)c1)N1CC2(CCN(C/C=C/c3ccc(Cl)c(Cl)c3)CC2)c2c(Br)cccc21` [Example 102, (E)-4-bromo-N-((2-chloropyridin-4-yl)methyl)-1′-(3-(3,4-dichlorophenyl)allyl)spiro[indoline-3,4′-piperidine]-1-carboxamide], the minimal effective concentration in experiment [1] (setting [5]) was 10 µM; with Haemonchus contortus L3 (setting [6]), 5.3 µM. For the same compound, the Ki in experiment [2] is 144 nM.

For `O=C(NCc1ccnc(F)c1)N1CC2(CCN(C/C=C/c3ccc(Cl)cc3)CC2)c2cc(-n3ccccc3=O)ccc21` [Example 75, (E)-1′-(3-(4-chlorophenyl)allyl)-N-((2-fluoropyridin-4-yl)methyl)-5-(2-oxopyridin-1(2H)-yl)spiro[indoline-3,4′-piperidine]-1-carboxamide], the values for the minimal effective concentration (in experiment [1] (setting [5]); with Haemonchus contortus L3 (setting [6])) were 4.4 µM and 100 µM, respectively. In addition, the Ki in experiment [2] is 11600 nM.

As for `O=C(NCc1ccnc(Cl)c1)N1CC2(CCN(C/C=C/c3ccc(Cl)cc3)CC2)c2cc(OC(F)(F)F)ccc21` [Example 185, (E)-1′-(3-(4-chlorophenyl)allyl)-N-((2-chloropyridin-4-yl)methyl)-5-(trifluoromethoxy)spiro[indoline-3,4′-piperidine]-1-carboxamide], the minimal effective concentration was 10.0 µM in experiment [1] (MEC, decrease in microfilariae motility by visual assessment, 72 hours, curve starting at 100 μM, read-out: Di MF) and 3.3 µM in the experiment on Haemonchus contortus L3 (Minimal Effective Concentration whereby worm motility is inhibited by approximately 70%, 96 hours, 37° C., tested 0.001-100 μM, read-out: HcL3 MEC). The Ki in experiment [2] stood at 283 nM.

With `O=C(NCc1cnc(Cl)s1)N1CC2(CCN(C/C=C/c3ccc(Cl)cc3)CC2)c2c1ccc(Cl)c2Cl` [Example 64, (E)-4,5-dichloro-1′-(3-(4-chlorophenyl)allyl)-N-((2-chlorothiazol-5-yl)methyl)spiro[indoline-3,4′-piperidine]-1-carboxamide], the figures for the minimal effective concentration (in experiment [1] (setting [3]); in the experiment with Haemonchus contortus L3 (setting [4])) were 5.7 µM and 10 µM, respectively. For the same compound, the inhibition constant Ki in experiment [2] amounted to 116 nM.

Regarding `O=C(NCC1CCCCC1)N1CC2(CCN(C/C=C/c3ccc(Cl)c(Cl)c3)CC2)c2c1ccc1scnc21` [Example 25, (E)-N-(cyclohexylmethyl)-1-(3-(3,4-dichlorophenyl)allyl)spiro[piperidine-4,8′-thiazolo[4,5-e]indole]-6′(7′H)-carboxamide], the minimal effective concentration in experiment [1] (setting [5]) was found to be 13.5 µM; in the experiment with Haemonchus contortus L3 (setting [6]), 100 µM. In addition, in experiment [2], the inhibition constant (Ki) amounted to 7590 nM.

For the compound `O=C(NCc1ccnc(F)c1)N1CC2(CCN(C/C=C/c3ccc(Cl)cc3)CC2)c2c1ccc(F)c2Cl` [Example 63, (E)-4-chloro-1′-(3-(4-chlorophenyl)allyl)-5-fluoro-N-((2-fluoropyridin-4-yl)methyl)spiro[indoline-3,4′-piperidine]-1-carboxamide], the figures for the minimal effective concentration (in experiment [1] (setting [5]); with Haemonchus contortus L3 (setting [6])) were 5.7 µM and 8.2 µM, respectively. Further, in experiment [2], the Ki worked out at 182 nM.
